Legend:
PRMT5 [1] = target: T1, PRMT5 (Homo sapiens, UniProt O14744); test: PRMT5 IC50 assay in the presence of SAM as cofactor; assay type: biochemical
T1 construct: purchased Viva (custom protein)
Outline: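 MTA-dependent versus SAM-dependent inhibition of human PRMT5 was assessed by IC50; conversion factors of 13.5 and 1.5 gave the corresponding Ki.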

HAP1 MTAP-intact = test: SDMA in-cell western assay, HAP1 MTAP-intact cell line; assay type: cell-based; conditions: Homo sapiens
Outline: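 Using an MTAP-isogenic HAP1 cell pair, inhibition of SDMA formation is read by in-cell western and expressed as IC50. MTAP-selectivity is assigned where the ratio between lines reaches 3 fold or greater.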

HAP1 MTAP-deleted = test: SDMA in-cell western assay, HAP1 MTAP-deleted cell line; assay type: cell-based; conditions: for IC50: Homo sapiens, HAP1 MTAP-deleted cell line; for MTAP Intact/Deleted Ratio: IC50 ratio HAP1 MTAP-intact / HAP1 MTAP-deleted
Outline: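 In-cell western for SDMA marks; MTAP-deleted (null) HAP1 background; values given as IC50.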

PRMT5 [2] = target: T1, PRMT5; test: PRMT5 IC50 assay with no cofactor; assay type: biochemical
Outline: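 Three cofactor conditions tested for PRMT5 inhibition: none, MTA and SAM, each giving an IC50. For conversion to Ki, the MTA-condition IC50 is divided by 13.5 and the SAM-condition IC50 by 1.5, and the two Ki values are expressed as a SAM/MTA ratio.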

PRMT5 [3] = target: T1, PRMT5; test: PRMT5 IC50 assay in the presence of MTA as cofactor; assay type: biochemical; conditions: for IC50: PRMT5, MTA as cofactor; for SAM/MTA Ratio: ratio between the Ki in the presence of SAM and the Ki in the presence of MTA
Outline: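 Three cofactor conditions are run: SAM-bound, MTA-bound and cofactor-free enzyme. IC50 is read from each; for the SAM and MTA arms it is divided by 1.5 and 13.5 respectively to give Ki.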

T1 sequence (O14744 whole entry): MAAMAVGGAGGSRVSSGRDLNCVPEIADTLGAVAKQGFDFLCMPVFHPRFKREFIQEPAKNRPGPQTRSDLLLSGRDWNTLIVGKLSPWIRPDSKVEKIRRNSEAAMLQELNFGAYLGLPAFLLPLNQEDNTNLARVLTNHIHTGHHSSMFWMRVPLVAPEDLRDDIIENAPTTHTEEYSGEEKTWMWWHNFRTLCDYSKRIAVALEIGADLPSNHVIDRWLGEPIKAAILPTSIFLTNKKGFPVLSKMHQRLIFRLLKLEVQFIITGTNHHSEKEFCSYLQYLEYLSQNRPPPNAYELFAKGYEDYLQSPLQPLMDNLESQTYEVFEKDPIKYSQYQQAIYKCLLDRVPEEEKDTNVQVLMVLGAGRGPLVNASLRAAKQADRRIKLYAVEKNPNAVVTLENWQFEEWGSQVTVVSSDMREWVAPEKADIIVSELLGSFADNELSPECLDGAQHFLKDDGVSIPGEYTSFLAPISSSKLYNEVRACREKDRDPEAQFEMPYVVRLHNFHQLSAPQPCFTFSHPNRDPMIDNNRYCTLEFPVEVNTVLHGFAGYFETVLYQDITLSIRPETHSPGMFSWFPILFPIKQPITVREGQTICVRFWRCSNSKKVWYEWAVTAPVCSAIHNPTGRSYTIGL
T1 sequence (Q9BQA1 whole entry partner): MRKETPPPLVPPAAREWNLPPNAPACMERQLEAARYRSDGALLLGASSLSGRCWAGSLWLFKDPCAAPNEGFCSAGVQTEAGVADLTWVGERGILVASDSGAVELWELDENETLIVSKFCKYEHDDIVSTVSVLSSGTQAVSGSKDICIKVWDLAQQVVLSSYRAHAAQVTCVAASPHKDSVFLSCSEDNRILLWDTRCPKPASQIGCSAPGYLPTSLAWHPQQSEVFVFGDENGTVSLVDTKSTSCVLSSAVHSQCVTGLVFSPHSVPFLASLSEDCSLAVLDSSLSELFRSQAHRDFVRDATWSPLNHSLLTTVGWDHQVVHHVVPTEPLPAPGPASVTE

| Compound | IC50 (PRMT5 [1]) [nM] | IC50 (HAP1 MTAP-intact) [nM] | IC50 (HAP1 MTAP-deleted) [nM] | MTAP Intact/Deleted Ratio (HAP1 MTAP-deleted) | IC50 (PRMT5 [2]) [nM] | IC50 (PRMT5 [3]) [nM] | SAM/MTA Ratio (PRMT5 [3]) |
| --- | --- | --- | --- | --- | --- | --- | --- |
| CCC(=O)N1CC(Nc2cc(C(=O)NC[C@H](O)CN3CCc4cc(OCc5cnco5)ccc4C3)ccn2)C1 [Compound 469, N-[(2S)-2-hydroxy-3-[6-(oxazol-5-ylmethoxy)-3,4-dihydro-1H-isoquinolin-2-yl]propyl]-2-[(1-propanoylazetidin-3-yl)amino]pyridine-4-carboxamide] | 50 to 500 | 1000 to 10000 | 1000 to 10000 | C* (an IC50 ratio of less than 3 fold between the IC50 in the HAP1 MTAP-intact cell line and the HAP1 MTAP-deleted cell line) | 500 to 5000 | 50 to 500 | A (a Ki ratio greater than or equal to 10 fold between the Ki in the presence of SAM and the Ki in the presence of MTA) |
| CCCC(=O)N1CCC(Nc2cc(C(=O)NC[C@H](O)CN3CCc4c(ccc(OCc5cnco5)c4C)C3)ccn2)CC1 [Compound 470, (S)-2-((1-butyrylpiperidin-4-yl)amino)-N-(2-hydroxy-3-(5-methyl-6-(oxazol-5-ylmethoxy)-3,4-dihydroisoquinolin-2(1H)-yl)propyl)isonicotinamide] | 50 to 500 | ≥ 10000 | < 1000 | A* (an IC50 ratio greater than or equal to 10 fold between the IC50 in the HAP1 MTAP-intact cell line and the HAP1 MTAP-deleted cell line) | 500 to 5000 | 50 to 500 | A (a Ki ratio greater than or equal to 10 fold between the Ki in the presence of SAM and the Ki in the presence of MTA) |
| CC(=O)N1CCC(Nc2cc(C(=O)NC[C@H](O)CN3CCc4cc(OCc5cnco5)ccc4C3)ccn2)CC1 [Compound 471, 2-[(1-acetyl-4-piperidyl)amino]-N-[(2S)-2-hydroxy-3-[6-(oxazol-5-ylmethoxy)-3,4-dihydro-1H-isoquinolin-2-yl]propyl]pyridine-4-carboxamide] | 50 to 500 | 1000 to 10000 | 1000 to 10000 | B* (an IC50 ratio greater than or equal to 3 fold but lower than 10 fold between the IC50 in the HAP1 MTAP-intact cell line and the HAP1 MTAP-deleted cell line) | 500 to 5000 | 50 to 500 | A (a Ki ratio greater than or equal to 10 fold between the Ki in the presence of SAM and the Ki in the presence of MTA) |
| Cc1c(OCc2cnco2)ccc2c1CCN(C[C@@H](O)CNC(=O)c1ccnc(NC3CC4(CC4)C3)c1)C2 [Compound 472] | 50 to 500 | ≥ 10000 | 1000 to 10000 | B* (an IC50 ratio greater than or equal to 3 fold but lower than 10 fold between the IC50 in the HAP1 MTAP-intact cell line and the HAP1 MTAP-deleted cell line) | 500 to 5000 | 50 to 500 | A (a Ki ratio greater than or equal to 10 fold between the Ki in the presence of SAM and the Ki in the presence of MTA) |
| Cc1c(OCc2cnco2)ccc2c1CCN(C[C@@H](O)CNC(=O)c1ccnc(NC3CC4(CCC4)C3)c1)C2 [Compound 473, (S)—N-(2-hydroxy-3-(5-methyl-6-(oxazol-5-ylmethoxy)-3,4-dihydroisoquinolin-2(1H)-yl)propyl)-2-(spiro[3.3]heptan-2-ylamino)isonicotinamide] | 50 to 500 | ≥ 10000 | 1000 to 10000 | C* (an IC50 ratio of less than 3 fold between the IC50 in the HAP1 MTAP-intact cell line and the HAP1 MTAP-deleted cell line) | 500 to 5000 | 50 to 500 | A (a Ki ratio greater than or equal to 10 fold between the Ki in the presence of SAM and the Ki in the presence of MTA) |
| CC(C)CC(=O)N1CC(Nc2cc(C(=O)NC[C@H](O)CN3CCc4cc(OCc5cnco5)ccc4C3)ccn2)C1 [Compound 474, N-[(2S)-2-hydroxy-3-[6-(oxazol-5-ylmethoxy)-3,4-dihydro-1H-isoquinolin-2-yl]propyl]-2-[[1-(3-methylbutanoyl)azetidin-3-yl]amino]pyridine-4-carboxamide] | 50 to 500 | 1000 to 10000 | 1000 to 10000 | B* (an IC50 ratio greater than or equal to 3 fold but lower than 10 fold between the IC50 in the HAP1 MTAP-intact cell line and the HAP1 MTAP-deleted cell line) | ≥ 5000 | 50 to 500 | A (a Ki ratio greater than or equal to 10 fold between the Ki in the presence of SAM and the Ki in the presence of MTA) |
| Cc1ncoc1COc1ccc2c(c1)CCN(C[C@@H](O)CNC(=O)c1ccc(OC3CCOCC3)cc1)C2 [Compound 475, N-[(2S)-2-hydroxy-3-{6-[(4-methyl-1,3-oxazol-5-yl)methoxy]-1,2,3,4-tetrahydroisoquinolin-2-yl}propyl]-4-(oxan-4-yloxy)benzamide] | 500 to 5000 | 1000 to 10000 | 1000 to 10000 | C* (an IC50 ratio of less than 3 fold between the IC50 in the HAP1 MTAP-intact cell line and the HAP1 MTAP-deleted cell line) | ≥ 5000 | 50 to 500 | A (a Ki ratio greater than or equal to 10 fold between the Ki in the presence of SAM and the Ki in the presence of MTA) |
| Cc1c(OCc2cnco2)ccc2c1CCN(C[C@@H](O)CNC(=O)c1ccnc(NC3CCC3C3CCC3)c1)C2 (stereo partly drawn) [Compound 476, 2-([1,1′-bi(cyclobutan)]-2-ylamino)-N—((S)-2-hydroxy-3-(5-methyl-6-(oxazol-5-ylmethoxy)-3,4-dihydroisoquinolin-2(1H)-yl)propyl)isonicotinamide] | 500 to 5000 | ≥ 10000 | ≥ 10000 | C* (an IC50 ratio of less than 3 fold between the IC50 in the HAP1 MTAP-intact cell line and the HAP1 MTAP-deleted cell line) | ≥ 5000 | 50 to 500 | A (a Ki ratio greater than or equal to 10 fold between the Ki in the presence of SAM and the Ki in the presence of MTA) |
| CCN(C)c1nc(NC2COC2)cc(C(=O)NC[C@H](O)CN2CCc3c(ccc(OCc4ocnc4C)c3C)C2)n1 [Compound 477] | 50 to 500 | ≥ 10000 | 1000 to 10000 | B* (an IC50 ratio greater than or equal to 3 fold but lower than 10 fold between the IC50 in the HAP1 MTAP-intact cell line and the HAP1 MTAP-deleted cell line) | ≥ 5000 | 50 to 500 | A (a Ki ratio greater than or equal to 10 fold between the Ki in the presence of SAM and the Ki in the presence of MTA) |
| CCN(C)c1cc(C(=O)NC[C@H](O)CN2CCc3c(ccc(OCc4ocnc4C)c3C)C2)cc(NC2CCC2)n1 [Compound 478, 2-(cyclobutylamino)-6-[ethyl(methyl)amino]-N-[(2S)-2-hydroxy-3-{5-methyl-6-[(4-methyl-1,3-oxazol-5-yl)methoxy]-1,2,3,4-tetrahydroisoquinolin-2-yl}propyl]pyridine-4-carboxamide] | 500 to 5000 | ≥ 10000 | ≥ 10000 | C* (an IC50 ratio of less than 3 fold between the IC50 in the HAP1 MTAP-intact cell line and the HAP1 MTAP-deleted cell line) | ≥ 5000 | 50 to 500 | A (a Ki ratio greater than or equal to 10 fold between the Ki in the presence of SAM and the Ki in the presence of MTA) |
